From patent US9273053B2, “Sulfur-containing heterocyclic derivative having Beta secretase inhibitory activity” (Shionogi & Co., Ltd., priority 2008, dated 2016)

Tests used:
[1] = target: human ether-a-go-go related gene (hERG) channel (Homo sapiens (Human), UniProt Q12809); assay: hERG test; assay type: cell-based; details: HEK293 cells expressing hERG channel, whole cell patch clamp, concentration not given
Text: For the purpose of assessing risk of an electrocardiogram QT interval prolongation, effects on delayed rectifier K+ current (IKr), which plays an important role in the ventricular repolarization process, was studied using HEK293 cells expressing human ether-a-go-go related gene (hERG) channel.
After a cell was retained at a membrane potential of −80 mV by whole cell patch clamp method using an automated patch clamp system (PatchXpress 7000A, Axon Instruments Inc.), IKr induced by depolarization pulse stimulation at +50 mV for 2 seconds and, further, repolarization pulse stimulation at −50 mV for 2 seconds was recorded. […] From the recording IKr, an absolute value of the tail peak current was measured based on the current value at the resting membrane potential using an analysis software (DataXpress ver. 1, Molecular Devices Corporation). Further, the % inhibition relative to the tail peak current before application of the test substance was calculated, and compared with the vehicle-applied group (0.1% dimethyl sulfoxide solution) to assess influence of the test substance on IKr.

CYP3A4 = CYP3A4 (Homo sapiens (Human), UniProt P08684); assay: CYP inhibition test (CYP3A4); assay type: in vitro ADME; details: pooled human hepatic microsome, terfenedine hydroxylation
Description: (§1) After the centrifugation at 3000 rpm for 15 minutes, resorufin (CYP1A2 metabolite) in the supernatant was quantified by a fluorescent multilabel counter and tributamide hydroxide (CYP2CP metabolite), mephenyloin 4′ hydroxide (CYP2C19 metabolite), […] (CYP2D6 metabolite), and terfenadine alcohol (CYP3A4 metabolite) were quantified by LC/MS/MS. Addition of only DMSO being a solvent dissolving a drug to a reaction system was adopted as a control (100%), remaining activity (%) was calculated at each concentration of a test drug added as the solution and […] was calculated by reverse presumption by a logistic model using a concentration and an inhibition rate.

CYP2D6 = CYP2D6 (Homo sapiens (Human), UniProt P10635); assay: CYP inhibition test (CYP2D6); assay type: in vitro ADME; details: pooled human hepatic microsome, dextromethorphan O-demethylation
Description: as §1

Recombinant human BACE-1 = Recombinant human BACE-1 (Homo sapiens (Human), UniProt P56817); assay: Assay of β-secretase-inhibiting activity; details: Recombinant human BACE-1 7.4 nM, substrate peptide 18 nM, pH 5.0, 30° C. for 3 hours
CYP2C19 = CYP2C19 (Homo sapiens (Human), UniProt P33261); assay: CYP inhibition test (CYP2C19); assay type: in vitro ADME; details: pooled human hepatic microsome, mephenytoin 4′-hydroxylation
Description: as §1

CYP1A2 = CYP1A2 (Homo sapiens (Human), UniProt P05177); assay: CYP inhibition test (CYP1A2); assay type: in vitro ADME; details: pooled human hepatic microsome, 7-ethoxyresorufin O-deethylation
Description: as §1

CYP2C9 = CYP2C9 (Homo sapiens (Human), UniProt P11712); assay: CYP inhibition test (CYP2C9); assay type: in vitro ADME; details: pooled human hepatic microsome, tolbutamide methyl-hydroxylation
Description: as §1

Sequence of human ether-a-go-go related gene (hERG) channel (Q12809 whole entry): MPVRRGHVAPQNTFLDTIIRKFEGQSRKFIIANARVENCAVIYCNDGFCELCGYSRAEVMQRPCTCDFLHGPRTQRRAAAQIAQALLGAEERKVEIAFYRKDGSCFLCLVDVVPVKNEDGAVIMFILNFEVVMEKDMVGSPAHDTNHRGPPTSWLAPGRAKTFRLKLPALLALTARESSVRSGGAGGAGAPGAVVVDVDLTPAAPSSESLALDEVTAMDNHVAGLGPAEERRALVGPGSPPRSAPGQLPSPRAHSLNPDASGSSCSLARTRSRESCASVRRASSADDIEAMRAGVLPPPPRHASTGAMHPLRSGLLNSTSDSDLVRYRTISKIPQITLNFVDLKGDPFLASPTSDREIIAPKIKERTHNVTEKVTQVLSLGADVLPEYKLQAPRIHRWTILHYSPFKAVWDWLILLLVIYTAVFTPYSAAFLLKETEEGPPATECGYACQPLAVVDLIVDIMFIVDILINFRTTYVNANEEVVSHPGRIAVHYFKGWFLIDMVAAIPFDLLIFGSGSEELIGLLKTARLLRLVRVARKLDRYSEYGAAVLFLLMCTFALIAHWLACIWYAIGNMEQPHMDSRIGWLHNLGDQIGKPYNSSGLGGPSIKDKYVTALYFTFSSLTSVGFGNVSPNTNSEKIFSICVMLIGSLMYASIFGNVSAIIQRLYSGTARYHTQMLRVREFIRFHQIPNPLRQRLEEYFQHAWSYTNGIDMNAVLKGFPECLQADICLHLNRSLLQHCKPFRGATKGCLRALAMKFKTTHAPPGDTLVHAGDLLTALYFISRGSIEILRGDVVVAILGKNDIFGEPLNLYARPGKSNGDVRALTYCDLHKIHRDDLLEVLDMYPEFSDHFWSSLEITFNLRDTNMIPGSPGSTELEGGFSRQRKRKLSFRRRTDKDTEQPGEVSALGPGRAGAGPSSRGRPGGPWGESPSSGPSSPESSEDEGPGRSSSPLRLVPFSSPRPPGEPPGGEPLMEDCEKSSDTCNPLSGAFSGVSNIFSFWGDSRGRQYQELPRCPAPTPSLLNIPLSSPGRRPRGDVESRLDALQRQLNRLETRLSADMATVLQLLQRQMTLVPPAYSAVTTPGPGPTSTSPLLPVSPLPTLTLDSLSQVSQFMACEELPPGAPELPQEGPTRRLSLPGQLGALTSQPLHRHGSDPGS
Sequence of CYP1A2 (P05177 whole entry): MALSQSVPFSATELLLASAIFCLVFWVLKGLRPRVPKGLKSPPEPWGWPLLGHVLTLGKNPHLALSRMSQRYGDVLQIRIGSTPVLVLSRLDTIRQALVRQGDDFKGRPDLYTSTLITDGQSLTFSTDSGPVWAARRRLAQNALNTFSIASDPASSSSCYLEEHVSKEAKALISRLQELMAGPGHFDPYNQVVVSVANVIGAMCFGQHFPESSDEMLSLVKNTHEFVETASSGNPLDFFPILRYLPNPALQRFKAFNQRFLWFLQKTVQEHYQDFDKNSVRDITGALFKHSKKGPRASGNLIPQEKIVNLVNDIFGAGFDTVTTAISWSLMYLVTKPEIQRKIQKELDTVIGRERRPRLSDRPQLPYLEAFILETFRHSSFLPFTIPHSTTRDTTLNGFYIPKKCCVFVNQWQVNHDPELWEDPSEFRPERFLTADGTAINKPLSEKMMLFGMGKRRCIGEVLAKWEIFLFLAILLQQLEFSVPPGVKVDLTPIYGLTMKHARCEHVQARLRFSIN
Sequence of CYP2D6 (P10635 whole entry): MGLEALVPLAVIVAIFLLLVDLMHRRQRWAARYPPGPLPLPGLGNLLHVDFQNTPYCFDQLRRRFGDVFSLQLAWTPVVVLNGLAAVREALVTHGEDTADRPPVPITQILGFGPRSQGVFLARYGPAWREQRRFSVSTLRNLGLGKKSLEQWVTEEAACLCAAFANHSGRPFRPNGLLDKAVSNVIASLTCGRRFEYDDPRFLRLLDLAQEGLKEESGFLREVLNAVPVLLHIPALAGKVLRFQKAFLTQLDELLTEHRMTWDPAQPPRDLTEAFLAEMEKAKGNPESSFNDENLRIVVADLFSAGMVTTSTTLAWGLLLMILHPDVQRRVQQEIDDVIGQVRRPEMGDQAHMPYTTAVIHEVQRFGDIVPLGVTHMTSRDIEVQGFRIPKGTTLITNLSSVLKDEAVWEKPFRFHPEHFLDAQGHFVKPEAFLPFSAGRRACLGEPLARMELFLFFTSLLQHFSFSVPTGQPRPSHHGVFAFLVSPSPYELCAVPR
Sequence of Recombinant human BACE-1 (P56817 46-501): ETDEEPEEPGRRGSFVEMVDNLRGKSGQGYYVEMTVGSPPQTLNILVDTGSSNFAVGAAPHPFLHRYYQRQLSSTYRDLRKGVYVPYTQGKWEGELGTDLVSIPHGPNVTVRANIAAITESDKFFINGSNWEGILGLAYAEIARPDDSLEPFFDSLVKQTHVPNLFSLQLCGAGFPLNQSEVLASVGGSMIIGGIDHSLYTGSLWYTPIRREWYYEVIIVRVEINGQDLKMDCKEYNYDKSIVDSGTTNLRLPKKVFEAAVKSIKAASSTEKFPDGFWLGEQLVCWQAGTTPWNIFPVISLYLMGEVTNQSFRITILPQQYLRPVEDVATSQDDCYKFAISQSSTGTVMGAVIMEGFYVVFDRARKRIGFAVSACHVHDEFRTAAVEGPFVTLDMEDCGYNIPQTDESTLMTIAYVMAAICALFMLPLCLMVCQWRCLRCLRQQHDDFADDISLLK
Sequence of CYP2C9 (P11712 whole entry): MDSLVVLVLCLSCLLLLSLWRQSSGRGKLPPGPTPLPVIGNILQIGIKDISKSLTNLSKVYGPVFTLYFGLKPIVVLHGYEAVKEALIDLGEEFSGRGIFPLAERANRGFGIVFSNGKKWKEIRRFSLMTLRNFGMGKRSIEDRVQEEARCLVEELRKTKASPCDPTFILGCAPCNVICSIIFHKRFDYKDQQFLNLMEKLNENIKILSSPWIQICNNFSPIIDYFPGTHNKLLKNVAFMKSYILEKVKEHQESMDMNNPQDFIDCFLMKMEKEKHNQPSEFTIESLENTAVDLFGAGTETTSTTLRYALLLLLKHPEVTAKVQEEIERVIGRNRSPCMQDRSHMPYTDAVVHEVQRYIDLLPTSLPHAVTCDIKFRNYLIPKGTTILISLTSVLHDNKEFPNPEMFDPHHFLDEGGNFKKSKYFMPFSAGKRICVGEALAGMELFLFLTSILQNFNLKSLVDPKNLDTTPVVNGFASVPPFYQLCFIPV
Sequence of CYP2C19 (P33261 whole entry): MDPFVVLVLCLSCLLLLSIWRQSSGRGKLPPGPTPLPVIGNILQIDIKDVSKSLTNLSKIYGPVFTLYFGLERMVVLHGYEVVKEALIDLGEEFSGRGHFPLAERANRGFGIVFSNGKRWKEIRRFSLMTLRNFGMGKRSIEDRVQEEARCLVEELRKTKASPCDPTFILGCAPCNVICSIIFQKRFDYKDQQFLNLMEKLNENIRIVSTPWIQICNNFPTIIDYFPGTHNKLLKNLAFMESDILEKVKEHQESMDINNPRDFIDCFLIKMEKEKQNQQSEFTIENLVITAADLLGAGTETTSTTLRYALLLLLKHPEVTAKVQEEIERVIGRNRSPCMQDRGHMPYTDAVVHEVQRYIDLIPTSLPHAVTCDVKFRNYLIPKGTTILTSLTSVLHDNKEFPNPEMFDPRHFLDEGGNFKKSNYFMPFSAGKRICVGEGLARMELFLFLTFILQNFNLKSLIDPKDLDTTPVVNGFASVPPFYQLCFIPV
Sequence of CYP3A4 (P08684 whole entry): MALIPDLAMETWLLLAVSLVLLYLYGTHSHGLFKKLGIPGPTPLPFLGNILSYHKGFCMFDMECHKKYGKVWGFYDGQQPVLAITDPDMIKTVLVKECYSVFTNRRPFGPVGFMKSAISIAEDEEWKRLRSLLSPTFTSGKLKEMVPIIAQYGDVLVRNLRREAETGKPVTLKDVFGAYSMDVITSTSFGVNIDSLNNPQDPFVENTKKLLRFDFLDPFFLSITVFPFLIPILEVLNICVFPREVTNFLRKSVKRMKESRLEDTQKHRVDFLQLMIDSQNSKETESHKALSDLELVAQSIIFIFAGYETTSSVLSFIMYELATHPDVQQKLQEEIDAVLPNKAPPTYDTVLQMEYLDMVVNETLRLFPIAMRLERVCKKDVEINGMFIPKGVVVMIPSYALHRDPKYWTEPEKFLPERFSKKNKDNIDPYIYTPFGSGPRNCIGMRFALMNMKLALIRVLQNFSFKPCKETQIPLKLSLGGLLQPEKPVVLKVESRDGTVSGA

IC50 (CYP3A4)	IC50 (CYP2D6)	IC50 (Recombinant human BACE-1)	IC50 (CYP2C19)	IC50 (CYP1A2)	IC50 (CYP2C9)	Compound	% inhibition of IKr tail peak current [1]
–	–	–	–	–	–	C=C1C[C@@](C)(c2cc(NC(=O)c3cnc(OC)cn3)cnc2C)N=C(N)S1 [Compound 102]	2.3%
–	–	–	–	–	–	CNC(=O)c1ccc(-c2ccc(F)c([C@]3(C)C=CSC(N)=N3)c2)cn1 [Compound 92]	7.9%
> 20 µM	> 20 µM	0.096 µM	> 20 µM	> 20 µM	> 20 µM	Cc1cc(C(=O)Nc2ccc(F)c([C@]3(C)C=CSC(N)=N3)c2)n(C)c1 [Compound 35]	–
